Measured values taken from US12497378B2, “Tetrahydronaphthalene compounds, pharmaceutical compositions, and uses thereof” (GUANGZHOU HENOVCOM BIOSCIENCE CO., LTD., priority 2020, dated 2025).

Test: Pharmacokinetics experiment in mouse after intramuscular injection of compound suspensions
Format: in vivo
Conditions: 9 mg/kg (calculated according to Rotigotine), SD mice, plasma
Procedure: The compounds of the present disclosure were precisely weighed in a proper amount and placed in a 20 ml vial, a blank matrix solution and a zirconia grinding ball were added to grind by vortex. After grinding, the suspension sample was transferred, and the blank matrix solution was used for diluting the suspension sample to final volume, and the suspension sample was packaged into 7 ml vials to prepare about a 20 mg/ml suspension. After the quantitative analysis was determined, the suspension was used for the pharmacokinetics experiment in the mouse.
Suspensions of Embodiments 15, 24, 27, 32 and 54 were prepared according to the method of Embodiment 82 and were taken at a dose of 9 mg/kg(calculated according to Rotigotine), and each of the above-mentioned compound suspensions was intramuscularly administrated for three SD mice, and whole blood samples were taken in 1 h, 4 h, 8 h, 24 h, 48 h, 72 h, 96 h, 120 h, 168 h, 216, 264 h, 312 h, and 360 h after administration, with 0.3 ml/time point. K2EDT/heparin sodium were added to the whole blood samples for anticoagulation, and a BNPP stabilizer was further added, and then each whole blood sample was centrifuged to obtain plasma in 30 min.

With “(S)-6-(propyl(2-(thiophen-2-yl)ethyl)amino)-5,6,7,8-tetrahydronaphthalen-1-yl 3-(16-(ethylamino)-16-oxohexadecanamido) propanoate [Embodiment 54]” the “blood concentrations of the active compounds” value (“blood concentrations” below) (1 h after intramuscular injection of compound suspension) was 0.288 ng/mL, the “blood concentrations” value (4 h after intramuscular injection of compound suspension) was 1.26 ng/mL and the “blood concentrations” value (8 h after intramuscular injection of compound suspension) was 2.53 ng/mL. For the same substance, the “blood concentrations” value (24 h after intramuscular injection of compound suspension) was 2.31 ng/mL, the “blood concentrations” value (48 h after intramuscular injection of compound suspension) was 2.02 ng/mL and the “blood concentrations” value (72 h after intramuscular injection of compound suspension) was 1.51 ng/mL. For the same substance, the “blood concentrations” value (96 h after intramuscular injection of compound suspension) was 1.57 ng/mL, the “blood concentrations” value (120 h after intramuscular injection of compound suspension) was 1.86 ng/mL and the “blood concentrations” value (168 h after intramuscular injection of compound suspension) was 2.29 ng/mL. The “blood concentrations” value (216 h after intramuscular injection of compound suspension) was 2.76 ng/mL, the “blood concentrations” value (264 h after intramuscular injection of compound suspension) was 1.83 ng/mL and the “blood concentrations” value (312 h after intramuscular injection of compound suspension) was 1.33 ng/mL. The “blood concentrations” value (360 h after intramuscular injection of compound suspension) was 0.906 ng/mL.
